Assays:
[1] = target: EGFR (Homo sapiens, UniProt P00533); test: Kinase assay, EGFR (33P-ATP incorporation or luciferase-coupled ATP consumption); format: biochemical
How it was run: (§1)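 Kinase activity measured either by γ-33P ATP incorporation into immobilized substrate (MBP or pEY) with scintillation counting, or by luciferase-based ATP consumption with pEY. Enzyme 10 or 20 nM; ATP near each kinase's KM (e.g. 10 or 30 μM); 1 h at room temperature, 1% DMSO, 10-point dose-response.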

[2] = target: Fyn (Homo sapiens, UniProt P06241); test: Kinase assay, Fyn; format: biochemical
Procedure: (§2) Kinase activity and compound inhibition are investigated using one or more assay formats. The ATP concentrations for each assay are selected to be close to the Michaelis-Menten constant (KM) for each individual kinase. Dose-response experiments are performed at 10 different inhibitor concentrations in a 384-well plate format. […] Exemplary kinase assays are described below. KDR Assay

[3] = target: EphA2 (Homo sapiens, UniProt P29317); test: Kinase assay, EphA2 (33P-ATP incorporation or luciferase-coupled ATP consumption); format: biochemical
How it was run: as §1

[4] = target: FGFR1 (Homo sapiens, UniProt P11362); test: Kinase assay, FGFR1 (33P-ATP incorporation or luciferase-coupled ATP consumption); format: biochemical
How it was run: as §1

[5] = target: T1, KDR (baculovirus expressed human KDR kinase domain D807-V1356) (Homo sapiens, UniProt P35968); test: biochemical
T1 construct: human KDR kinase domain D807-V1356; host or cells: baculovirus expression system
How it was run: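 Luciferase-coupled chemiluminescence quantifies ATP left after a 4 h room-temperature reaction of KDR kinase domain (D807–V1356, baculovirus-expressed human). ATP set close to KM; inhibitors tested at 10 concentrations.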

[6] = target: Flt-1 (Homo sapiens, UniProt P17948); test: Kinase assay, Flt-1 (33P-ATP incorporation or luciferase-coupled ATP consumption); format: biochemical; details: read-out: Flt1 IC50
How it was run: as §1

[7] = target: PDGFR alpha (Homo sapiens, UniProt P16234); test: Kinase assay, PDGFR alpha (33P-ATP incorporation or luciferase-coupled ATP consumption); format: biochemical; details: read-out: PDGF-R-A IC50
How it was run: as §1

[8] = target: c-Kit kinase (Homo sapiens, UniProt P10721); test: c-Kit AlphaScreen kinase assay; format: biochemical
Procedure: as §2
c-Kit biochemical activity was assessed using AlphaScreen™ (Perkin Elmer) technology, described above. Test compounds, ATP, biotinylated poly(Glu, Tyr) and c-Kit kinase were combined in a volume of 20 μL in a 384-well white, medium binding microtiter plate (Greiner). Reaction mixtures were incubated for 1 hr at ambient temperature. Reactions were quenched by addition of 10 uL of […] AlphaScreen bead suspension containing 75 mM Hepes, pH 7.4, 300 mM NaCl, 120 mM EDTA, 0.3% BSA and 0.03% Tween-20. After 16 hr incubation at ambient temperature plates were read using an AlphaQuest reader (Perkin Elmer).

[9] = target: IRK (Homo sapiens, UniProt P06213); test: Kinase assay, IRK; format: biochemical
Procedure: as §2

[10] = target: ALK (Homo sapiens, UniProt Q9UM73); test: Kinase assay, ALK (33P-ATP incorporation or luciferase-coupled ATP consumption); format: biochemical
Procedure: Kinase assays were performed by measurement of incorporation of γ-^33P ATP into immobilized myelin basic protein (MBP). […] Plates were washed 3× with 100 μl TBS. […] Compound dilutions were performed in DMSO and added to assay wells to a final DMSO concentration of 1%. Each data point was measured in duplicate, and at least two duplicate assays were performed for each individual compound determination. Enzyme was added to final concentrations of 10 nM or 20 nM, for example. A mixture of unlabeled ATP and γ-^33P ATP was added to start the reaction (2×10^6 cpm of γ-^33P ATP per well (3000 Ci/mmole) and either 10 μM or 30 μM unlabeled ATP, typically. The reactions were carried out for 1 hour at room temperature with shaking. Plates were washed 7× with TBS, followed by the addition of 50 μl/well scintillation fluid (Wallac). Plates were read using a Wallac Trilux counter. This is only one format of such assays, various other formats are possible, as known to one of ordinary skill in the art.
Tyrosine kinase activity is determined by 1) measurement of kinase-dependent ATP consumption by in the presence of a generic substrate such as, polyglutamic acid, tyrosine, 4:1 (pEY), by luciferase/luciferin-mediated chemiluminescence or; 2) incorporation of radioactive phosphate derived from ^33P-ATP into a generic substrate which has been adsorbed onto the well surface of polystyrene microtiter plates. Phosphorylated substrate products are quantified by scintillation spectrometry.
as §2

Sequence of IRK (P06213 28-1382): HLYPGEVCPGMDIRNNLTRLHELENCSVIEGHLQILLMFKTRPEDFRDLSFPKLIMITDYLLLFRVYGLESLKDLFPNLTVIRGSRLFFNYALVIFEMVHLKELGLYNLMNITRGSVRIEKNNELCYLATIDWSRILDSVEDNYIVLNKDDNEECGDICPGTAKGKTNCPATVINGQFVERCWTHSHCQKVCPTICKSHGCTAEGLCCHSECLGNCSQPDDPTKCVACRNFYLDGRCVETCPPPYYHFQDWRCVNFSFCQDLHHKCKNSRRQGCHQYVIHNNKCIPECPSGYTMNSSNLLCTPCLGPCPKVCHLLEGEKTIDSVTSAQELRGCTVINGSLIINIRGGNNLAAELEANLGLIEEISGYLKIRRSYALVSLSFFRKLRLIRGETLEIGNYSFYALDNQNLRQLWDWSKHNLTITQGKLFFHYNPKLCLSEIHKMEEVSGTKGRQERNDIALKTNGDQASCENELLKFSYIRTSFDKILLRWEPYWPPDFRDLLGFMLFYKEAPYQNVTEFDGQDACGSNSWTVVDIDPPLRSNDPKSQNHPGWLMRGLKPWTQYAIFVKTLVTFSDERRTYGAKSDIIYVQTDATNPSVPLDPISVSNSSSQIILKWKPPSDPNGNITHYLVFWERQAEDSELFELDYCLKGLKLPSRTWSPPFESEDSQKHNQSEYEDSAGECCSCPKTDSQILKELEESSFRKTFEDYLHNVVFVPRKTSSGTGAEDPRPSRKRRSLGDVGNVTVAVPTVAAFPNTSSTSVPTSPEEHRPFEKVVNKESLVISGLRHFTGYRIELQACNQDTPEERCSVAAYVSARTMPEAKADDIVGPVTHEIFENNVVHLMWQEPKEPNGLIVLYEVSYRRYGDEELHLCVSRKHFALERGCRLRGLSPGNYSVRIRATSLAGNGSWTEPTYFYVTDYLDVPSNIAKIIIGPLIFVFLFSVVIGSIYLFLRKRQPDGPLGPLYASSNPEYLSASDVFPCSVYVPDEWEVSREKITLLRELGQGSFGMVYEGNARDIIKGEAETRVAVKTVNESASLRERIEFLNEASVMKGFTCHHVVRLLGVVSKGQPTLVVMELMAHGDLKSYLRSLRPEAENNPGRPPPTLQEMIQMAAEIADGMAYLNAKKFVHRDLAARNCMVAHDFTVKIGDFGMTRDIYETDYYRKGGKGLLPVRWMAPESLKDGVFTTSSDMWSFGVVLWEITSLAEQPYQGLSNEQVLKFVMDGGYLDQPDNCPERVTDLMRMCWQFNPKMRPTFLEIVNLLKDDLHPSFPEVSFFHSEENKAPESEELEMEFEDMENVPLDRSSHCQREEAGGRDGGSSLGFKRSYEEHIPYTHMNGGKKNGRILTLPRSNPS
T1 sequence (P35968 807-1356): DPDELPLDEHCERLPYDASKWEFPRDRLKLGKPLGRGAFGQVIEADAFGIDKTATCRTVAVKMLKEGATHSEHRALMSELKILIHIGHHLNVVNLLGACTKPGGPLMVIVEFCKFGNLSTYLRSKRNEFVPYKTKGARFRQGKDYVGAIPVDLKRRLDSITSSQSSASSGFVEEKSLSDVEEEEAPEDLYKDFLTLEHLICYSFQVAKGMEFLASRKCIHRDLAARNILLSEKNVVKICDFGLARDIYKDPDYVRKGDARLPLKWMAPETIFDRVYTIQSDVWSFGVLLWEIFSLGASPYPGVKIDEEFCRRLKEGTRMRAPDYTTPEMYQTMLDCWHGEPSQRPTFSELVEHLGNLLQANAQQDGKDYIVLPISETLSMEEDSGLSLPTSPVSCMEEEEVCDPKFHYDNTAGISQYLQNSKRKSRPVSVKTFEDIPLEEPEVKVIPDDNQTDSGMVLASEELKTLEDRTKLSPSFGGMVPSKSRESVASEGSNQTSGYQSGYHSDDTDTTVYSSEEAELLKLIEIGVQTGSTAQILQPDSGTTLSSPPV
Sequence of EphA2 (P29317 24-976, species assumed): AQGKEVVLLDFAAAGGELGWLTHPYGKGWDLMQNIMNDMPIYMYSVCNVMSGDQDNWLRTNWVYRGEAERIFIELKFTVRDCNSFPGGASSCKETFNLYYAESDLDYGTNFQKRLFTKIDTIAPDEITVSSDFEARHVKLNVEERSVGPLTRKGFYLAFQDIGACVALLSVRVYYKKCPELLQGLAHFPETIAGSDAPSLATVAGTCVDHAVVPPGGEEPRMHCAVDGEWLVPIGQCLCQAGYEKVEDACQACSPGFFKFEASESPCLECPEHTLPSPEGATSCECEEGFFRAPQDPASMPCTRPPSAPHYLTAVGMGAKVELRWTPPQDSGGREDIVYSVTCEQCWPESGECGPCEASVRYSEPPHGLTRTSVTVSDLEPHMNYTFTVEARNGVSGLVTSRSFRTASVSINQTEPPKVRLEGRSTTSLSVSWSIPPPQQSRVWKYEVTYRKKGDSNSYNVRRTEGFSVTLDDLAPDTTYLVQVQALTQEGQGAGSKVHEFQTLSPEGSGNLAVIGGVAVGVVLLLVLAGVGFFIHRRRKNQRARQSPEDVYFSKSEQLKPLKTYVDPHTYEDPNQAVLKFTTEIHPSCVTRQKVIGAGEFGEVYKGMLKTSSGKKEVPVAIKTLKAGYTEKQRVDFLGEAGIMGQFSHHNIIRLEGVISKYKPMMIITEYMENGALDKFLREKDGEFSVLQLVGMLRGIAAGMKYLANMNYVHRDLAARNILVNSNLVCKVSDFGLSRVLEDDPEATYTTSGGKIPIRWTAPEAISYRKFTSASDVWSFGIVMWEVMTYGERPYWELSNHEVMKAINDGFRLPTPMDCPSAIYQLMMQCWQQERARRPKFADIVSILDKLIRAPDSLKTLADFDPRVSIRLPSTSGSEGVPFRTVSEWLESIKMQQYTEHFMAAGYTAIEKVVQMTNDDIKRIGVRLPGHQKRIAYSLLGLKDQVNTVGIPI
Sequence of PDGFR alpha (P16234 24-1089): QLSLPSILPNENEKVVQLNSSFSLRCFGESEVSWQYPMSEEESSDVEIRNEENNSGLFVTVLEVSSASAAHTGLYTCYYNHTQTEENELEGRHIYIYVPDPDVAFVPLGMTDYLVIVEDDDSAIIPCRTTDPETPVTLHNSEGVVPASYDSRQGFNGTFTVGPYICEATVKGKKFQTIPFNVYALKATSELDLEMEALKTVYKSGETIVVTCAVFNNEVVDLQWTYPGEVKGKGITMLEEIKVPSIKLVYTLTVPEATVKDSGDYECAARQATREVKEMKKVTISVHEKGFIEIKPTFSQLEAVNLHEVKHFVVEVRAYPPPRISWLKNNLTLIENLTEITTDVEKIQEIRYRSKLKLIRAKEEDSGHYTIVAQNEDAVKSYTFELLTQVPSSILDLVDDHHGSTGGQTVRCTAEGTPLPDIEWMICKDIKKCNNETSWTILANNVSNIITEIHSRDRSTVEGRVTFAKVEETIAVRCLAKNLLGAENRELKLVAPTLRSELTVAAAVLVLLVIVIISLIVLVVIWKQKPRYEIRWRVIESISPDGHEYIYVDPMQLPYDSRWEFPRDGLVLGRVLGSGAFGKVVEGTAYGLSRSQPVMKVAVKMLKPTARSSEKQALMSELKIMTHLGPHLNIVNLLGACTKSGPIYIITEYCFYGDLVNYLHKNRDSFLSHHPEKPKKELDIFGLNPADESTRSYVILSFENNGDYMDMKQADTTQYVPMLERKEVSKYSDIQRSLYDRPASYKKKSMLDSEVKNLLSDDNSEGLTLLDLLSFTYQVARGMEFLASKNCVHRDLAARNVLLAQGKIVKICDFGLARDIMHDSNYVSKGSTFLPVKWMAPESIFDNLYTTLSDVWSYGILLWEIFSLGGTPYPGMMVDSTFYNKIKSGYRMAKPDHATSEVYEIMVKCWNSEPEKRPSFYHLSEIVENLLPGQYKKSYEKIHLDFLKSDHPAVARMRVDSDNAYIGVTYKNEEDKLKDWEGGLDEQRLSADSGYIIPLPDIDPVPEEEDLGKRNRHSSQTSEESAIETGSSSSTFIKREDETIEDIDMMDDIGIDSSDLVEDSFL
Sequence of EGFR (P00533 25-1210, species assumed): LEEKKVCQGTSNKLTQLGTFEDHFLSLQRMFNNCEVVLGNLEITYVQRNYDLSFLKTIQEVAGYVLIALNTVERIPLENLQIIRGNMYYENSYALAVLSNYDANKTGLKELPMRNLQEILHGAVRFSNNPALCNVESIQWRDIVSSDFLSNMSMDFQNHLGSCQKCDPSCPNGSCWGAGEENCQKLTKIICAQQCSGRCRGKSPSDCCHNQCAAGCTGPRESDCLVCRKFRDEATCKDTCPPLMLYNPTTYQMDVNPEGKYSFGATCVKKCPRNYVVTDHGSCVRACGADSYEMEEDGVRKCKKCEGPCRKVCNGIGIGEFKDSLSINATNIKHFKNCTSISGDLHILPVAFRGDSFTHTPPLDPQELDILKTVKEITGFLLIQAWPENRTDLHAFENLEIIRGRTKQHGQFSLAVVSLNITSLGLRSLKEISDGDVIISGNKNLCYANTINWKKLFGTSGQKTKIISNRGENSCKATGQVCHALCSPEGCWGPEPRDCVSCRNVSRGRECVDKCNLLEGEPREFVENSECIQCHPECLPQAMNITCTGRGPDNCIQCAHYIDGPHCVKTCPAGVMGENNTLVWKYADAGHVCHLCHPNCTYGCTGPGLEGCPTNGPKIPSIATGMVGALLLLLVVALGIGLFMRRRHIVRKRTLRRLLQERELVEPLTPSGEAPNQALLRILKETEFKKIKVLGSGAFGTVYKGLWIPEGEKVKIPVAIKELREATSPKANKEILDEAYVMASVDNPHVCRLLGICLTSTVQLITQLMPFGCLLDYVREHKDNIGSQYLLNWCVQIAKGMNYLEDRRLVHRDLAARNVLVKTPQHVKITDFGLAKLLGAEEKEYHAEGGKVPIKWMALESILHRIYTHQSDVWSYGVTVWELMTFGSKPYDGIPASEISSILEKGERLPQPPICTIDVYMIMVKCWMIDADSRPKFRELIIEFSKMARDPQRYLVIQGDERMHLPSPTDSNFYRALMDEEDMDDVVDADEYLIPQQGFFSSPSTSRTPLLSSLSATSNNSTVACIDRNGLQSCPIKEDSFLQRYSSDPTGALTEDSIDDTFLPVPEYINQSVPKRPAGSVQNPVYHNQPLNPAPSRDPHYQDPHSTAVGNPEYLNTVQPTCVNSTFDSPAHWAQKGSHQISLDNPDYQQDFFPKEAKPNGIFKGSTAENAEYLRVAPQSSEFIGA

Row | Structure (SMILES) | IC50 [1] [nM] | IC50 [2] [nM] | IC50 [3] [nM] | IC50 [4] [nM] | IC50 [5] [nM] | IC50 [6] [nM] | IC50 [7] [nM] | IC50 [8] [nM] | IC50 [9] [nM] | IC50 [10] [nM]
1 | CCN1CCC(Nc2ccc3c(c2)/C(=C(\c2ccc(C)cc2)c2ncc[nH]2)C(=O)N3)CC1 [Entry 13, (3Z)-5-[(1-ethylpiperidin-4-yl)amino]-3-[1H-imidazol-2-yl(4-methylphenyl)methylidene]-1,3-dihydro-2H-indol-2-one] | 50 to 500 | < 50 | 50 to 500 | < 50 | < 50 | 50 to 500 | < 50 | 50 to 500 | 500 to 5000 | –
2 | COCCN1CCC(Nc2ccc3c(c2)/C(=C(\c2cccc(F)c2)c2ncc[nH]2)C(=O)N3)CC1 [Entry 41, (3Z)-3-[(3-fluorophenyl)(1H-imidazol-2-yl)methylidene]-5-({1-[2-(methyloxy)ethyl]piperidin-4-yl}amino)-1,3-dihydro-2H-indol-2-one] | 50 to 500 | < 50 | 500 to 5000 | < 50 | < 50 | 50 to 500 | < 50 | 50 to 500 | 500 to 5000 | –
3 | CCN1CCC(Nc2ccc3c(c2)/C(=C(\c2ccc(C)c(F)c2)c2ncc[nH]2)C(=O)N3)CC1 [Entry 57, (3Z)-5-[(1-ethylpiperidin-4-yl)amino]-3-[(3-fluoro-4-methylphenyl)(1H-imidazol-2-yl)methylidene]-1,3-dihydro-2H-indol-2-one] | – | < 50 | 50 to 500 | < 50 | < 50 | – | < 50 | – | 500 to 5000 | 50 to 500
4 | CCN1CCC(Nc2ccc3c(c2)/C(=C(\c2ccc(C)cc2)c2nc(C)c[nH]2)C(=O)N3)CC1 [Entry 64, (3Z)-5-[(1-ethylpiperidin-4-yl)amino]-3-[(4-methyl-1H-imidazol-2-yl)(4-methylphenyl)methylidene] 1,3-dihydro-2H-indol-2-one] | 50 to 500 | < 50 | 50 to 500 | < 50 | < 50 | – | < 50 | – | 500 to 5000 | < 50
5 | CCN1CCC(Nc2ccc3c(c2)/C(=C(\c2ccc(C)c(F)c2)c2nc(C)c[nH]2)C(=O)N3)CC1 [Entry 67, (3Z)-5-[(1-ethylpiperidin-4-yl)amino]-3-[(3-fluoro-4-methylphenyl) (4-methyl-1H-imidazol-2-yl)methylidene]-1,3-dihydro-2H-indol-2-one] | < 50 | < 50 | 50 to 500 | < 50 | < 50 | – | < 50 | – | 500 to 5000 | < 50
6 | COCCN1CCC(Nc2ccc3c(c2)/C(=C(\c2ccc(C)c(F)c2)c2nc(C)c[nH]2)C(=O)N3)CC1 [Entry 97] | < 50 | < 50 | 500 to 5000 | < 50 | < 50 | – | – | – | 500 to 5000 | < 50
7 | CCN1CCC(Nc2ccc3c(c2)/C(=C(\c2ccc(F)c(Cl)c2)c2nc(C)c[nH]2)C(=O)N3)CC1 [Entry 105, (3Z)-3-[(3-chloro-4-fluorophenyl)(4-methyl-1H-imidazol-2-yl)methylidene]-5-[(1-ethylpiperidin-4-yl)amino]-1,3-dihydro-2H-indol-2-one] | 50 to 500 | < 50 | 500 to 5000 | < 50 | < 50 | – | < 50 | 50 to 500 | 500 to 5000 | –

From patent US7626031B2, “Substituted 3-(diarylmethylene)indolin-2-ones and methods of their use” (Symphony Evolution, Inc., priority 2002, dated 2009)
